Source: PubChem BioAssay AID248 (DTP/NCI, 2004)
Several values for one entry are separate records, joined by “and”; a condition that tells them apart may be missing. Identical values can stand only once. Inconclusive results and toxic doses are left out.

Test system: L1210 leukemia ip in BDF1 mice, survival T/C
Experiment: NCI In Vivo Anticancer Drug Screen. Data for tumor model L1210 Leukemia (intraperitoneal) in B6D2F1 (BDF1) mice
Conditions: endpoint: mean survival time, higher = longer survival
Procedure, shortened: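 Antitumor effect is assessed in tumor-bearing animals. Survival in the compound arm is compared with a vehicle-dosed control arm and expressed as their quotient.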

[1] = dose: 12.5 mg/kg/injection, schedule: Q04DX003 (ip), vehicle: saline
[2] = dose: 25.0 mg/kg/injection, schedule: Q04DX003 (ip), vehicle: saline
[3] = dose: 100.0 mg/kg/injection, schedule: Q01DX001 (ip), vehicle: saline
[4] = dose: 200.0 mg/kg/injection, schedule: Q01DX001 (ip), vehicle: saline
[5] = dose: 400.0 mg/kg/injection, schedule: Q01DX001 (ip), vehicle: saline
[6] = dose: 100.0 mg/kg/injection, schedule: Q01DX001 (ip), vehicle: carboxymethylcellulose (CMC)
[7] = dose: 200.0 mg/kg/injection, schedule: Q01DX001 (ip), vehicle: carboxymethylcellulose (CMC)
[8] = dose: 400.0 mg/kg/injection, schedule: Q01DX001 (ip), vehicle: carboxymethylcellulose (CMC)
[9] = dose: 100.0 mg/kg/injection, schedule: Q01DX009 (ip), vehicle: Klucel (hydroxypropylcellulose) (HPC)
[10] = dose: 200.0 mg/kg/injection, schedule: Q01DX009 (ip), vehicle: Klucel (hydroxypropylcellulose) (HPC)
[11] = dose: 400.0 mg/kg/injection, schedule: Q01DX009 (ip), vehicle: Klucel (hydroxypropylcellulose) (HPC)
[12] = dose: 100.0 mg/kg/injection, schedule: Q04DX002 (ip), vehicle: Klucel (hydroxypropylcellulose) (HPC)
[13] = dose: 200.0 mg/kg/injection, schedule: Q04DX002 (ip), vehicle: Klucel (hydroxypropylcellulose) (HPC)
[14] = dose: 400.0 mg/kg/injection, schedule: Q04DX002 (ip), vehicle: Klucel (hydroxypropylcellulose) (HPC)
[15] = dose: 100.0 mg/kg/injection, schedule: Q01DX009 (ip), vehicle: water
[16] = dose: 200.0 mg/kg/injection, schedule: Q01DX009 (ip), vehicle: water
[17] = dose: 50.0 mg/kg/injection, schedule: Q01DX001 (ip), vehicle: Klucel (hydroxypropylcellulose) (HPC)
[18] = dose: 100.0 mg/kg/injection, schedule: Q01DX001 (ip), vehicle: Klucel (hydroxypropylcellulose) (HPC)
[19] = dose: 200.0 mg/kg/injection, schedule: Q01DX001 (ip), vehicle: Klucel (hydroxypropylcellulose) (HPC)
[20] = dose: 100.0 mg/kg/injection, schedule: Q04DX003 (ip), vehicle: Klucel (hydroxypropylcellulose) (HPC)
[21] = dose: 200.0 mg/kg/injection, schedule: Q04DX003 (ip), vehicle: Klucel (hydroxypropylcellulose) (HPC)
[22] = dose: 400.0 mg/kg/injection, schedule: Q04DX003 (ip), vehicle: Klucel (hydroxypropylcellulose) (HPC)
[23] = dose: 100.0 mg/kg/injection, schedule: Q04DX003 (ip), vehicle: saline

Compound: c1ccc2n[se]nc2c1
- T/C [1]: 86 % of control
- T/C [2]: 103 % of control

Compound: CC(C)C(O)CC(=O)NN (stereo unspecified)
- T/C [3]: 98 % of control
- T/C [4]: 110 % of control
- T/C [5]: 102 % of control

Compound: CN1C(=O)NC(C)(CCOCc2ccccc2)C1=O (stereo unspecified)
- T/C (dose: 50.0 mg/kg/injection, schedule: Q01DX001 (ip), vehicle: carboxymethylcellulose (CMC)): 96 % of control
- T/C [6]: 107 % of control
- T/C [7]: 100 % of control
- T/C [8]: 100 % of control

Compound: CN(C)c1ccc(C(=O)/C=C/c2ccc([N+](=O)[O-])cc2)cc1
- T/C [9]: 87 % of control
- T/C [10]: 97 % of control
- T/C [11]: 86 % of control

Compound: CC(C)(CC(=O)O)NC(=O)c1ccccc1
- T/C (dose: 100.0 mg/kg/injection, schedule: Q01DX001 (ip), vehicle: other): 95 % of control
- T/C (dose: 200.0 mg/kg/injection, schedule: Q01DX001 (ip), vehicle: other): 106 % of control
- T/C (dose: 400.0 mg/kg/injection, schedule: Q01DX001 (ip), vehicle: other): 103 % of control

Compound: O=C(NCCO)Nc1cccc2ccccc12
- T/C [3]: 95 % of control
- T/C [4]: 95 % of control
- T/C [5]: 90 % of control

Compound: CCCCC[P+](c1ccccc1)(c1ccccc1)c1ccccc1
- T/C (dose: 12.5 mg/kg/injection, schedule: Q04DX002 (ip), vehicle: Klucel (hydroxypropylcellulose) (HPC)): 109 % of control
- T/C (dose: 25.0 mg/kg/injection, schedule: Q04DX002 (ip), vehicle: Klucel (hydroxypropylcellulose) (HPC)): 106 % of control
- T/C (dose: 50.0 mg/kg/injection, schedule: Q04DX002 (ip), vehicle: Klucel (hydroxypropylcellulose) (HPC)): 109 % of control

Compound: O=C(COc1ccc(Cl)c(Cl)c1)NCc1ccc[n+](Cc2ccc([N+](=O)[O-])cc2)c1
- T/C (dose: 100.0 mg/kg/injection, schedule: Q04DX003 (ip), vehicle: saline with Tween-80): 89 % of control
- T/C (dose: 200.0 mg/kg/injection, schedule: Q04DX003 (ip), vehicle: saline with Tween-80): 91 % of control
- T/C (dose: 400.0 mg/kg/injection, schedule: Q04DX003 (ip), vehicle: saline with Tween-80): 88 % of control

Compound: CC(C)CCNNCCC(C)C
- T/C (dose: 75.0 mg/kg/injection, schedule: Q01DX001 (ip), vehicle: other): 108 % of control
- T/C (dose: 150.0 mg/kg/injection, schedule: Q01DX001 (ip), vehicle: other): 104 % of control

Compound: O=CO
- T/C [3]: 100 % of control
- T/C [4]: 98 % of control
- T/C [5]: 93 % of control

Compound: Cc1ccc(/C=N\N=C\c2ccc(C)cc2)cc1
- T/C (dose: 100.0 mg/kg/injection, schedule: Q01DX009 (ip), vehicle: saline with Tween-80): 96 % of control
- T/C (dose: 200.0 mg/kg/injection, schedule: Q01DX009 (ip), vehicle: saline with Tween-80): 91 % of control

Compound: CCC(CC)(c1ccccc1)C(OC(N)=O)c1ccccc1 (stereo unspecified)
- T/C (dose: 50.0 mg/kg/injection, schedule: Q01DX001 (ip), vehicle: saline): 90 % of control
- T/C [3]: 101 % of control
- T/C [4]: 92 % of control
- T/C [5]: 90 % of control

Compound: CCOC(=N)c1cc([N+](=O)[O-])cc([N+](=O)[O-])c1
- T/C [3]: 102 % of control
- T/C [4]: 104 % of control
- T/C [5]: 102 % of control

Compound: O=C(COc1ccc(Cl)cc1Cl)OCCOc1ccc(Cl)cc1
- T/C [12]: 97 % of control
- T/C [13]: 97 % of control
- T/C [14]: 118 % of control

Compound: CCOc1nc(SCC)ncc1C
- T/C [15]: 107 % of control
- T/C (dose: 100.0 mg/kg/injection, schedule: Q04DX003 (ip), vehicle: water): 101 % of control
- T/C [16]: 106 % of control
- T/C (dose: 200.0 mg/kg/injection, schedule: Q04DX003 (ip), vehicle: water): 95 % of control
- T/C (dose: 400.0 mg/kg/injection, schedule: Q04DX003 (ip), vehicle: water): 103 % of control

Compound: CCN(CC)Cc1ccccc1COC(=O)c1ccc(Br)cc1
- T/C [12]: 101 % of control
- T/C [13]: 108 % of control
- T/C [14]: 101 % of control

Compound: O=C1Cc2cc3c(cc2C=C2CCCN12)OCO3
- T/C [17]: 103 % of control
- T/C [18]: 97 % of control
- T/C [19]: 101 % of control

Compound: CN1C(=O)OC2(CCN(Cc3ccc([N+](=O)[O-])o3)CC2)C1=O
- T/C [20]: 98 % of control
- T/C [21]: 96 % of control
- T/C [22]: 98 % of control

Compound: O=NN(CCCl)C(=O)N(C1CCCCC1)C1CCCCC1
- T/C (dose: 177.0 mg/kg/injection, schedule: Q01DX009 (ip), vehicle: carboxymethylcellulose (CMC)): 121 % of control
- T/C (dose: 400.0 mg/kg/injection, schedule: Q01DX009 (ip), vehicle: carboxymethylcellulose (CMC)): 117 % of control
- T/C (dose: 600.0 mg/kg/injection, schedule: Q01DX009 (ip), vehicle: carboxymethylcellulose (CMC)): 166 % of control

Compound: CC1(C)N=C(N)N=C(N)N1c1ccc(Oc2ccc(S(=O)(=O)F)cc2)cc1
- T/C [17]: 92 % of control
- T/C [18]: 95 % of control
- T/C [19]: 100 % of control

Compound: c1ccc(N2CCNCC2)cc1
- T/C (dose: 5.0 mg/kg/injection, schedule: Q01DX001 (ip), vehicle: saline): 98 % of control [middle of 5 runs]
- T/C (dose: 6.25 mg/kg/injection, schedule: Q01DX001 (ip), vehicle: saline): 97 % of control
- T/C (dose: 6.25 mg/kg/injection, schedule: Q04DX003 (ip), vehicle: saline): 99 % of control
- T/C (dose: 10.0 mg/kg/injection, schedule: Q01DX001 (ip), vehicle: saline): 102 % of control [middle of 5 runs]
- T/C (dose: 12.5 mg/kg/injection, schedule: Q01DX001 (ip), vehicle: saline): 92 % of control
- T/C [1]: 99 % of control
- T/C (dose: 20.0 mg/kg/injection, schedule: Q01DX001 (ip), vehicle: saline): 98 % of control [middle of 5 runs]
- T/C (dose: 25.0 mg/kg/injection, schedule: Q01DX001 (ip), vehicle: saline): 97 % of control
- T/C [2]: 96 % of control
- T/C (dose: 40.0 mg/kg/injection, schedule: Q01DX001 (ip), vehicle: saline): 104 % of control [middle of 5 runs]
- T/C (dose: 80.0 mg/kg/injection, schedule: Q01DX001 (ip), vehicle: saline): 92 % of control and 98 % of control and 115 % of control
- T/C [3]: 101 % of control

Compound: CN(C)c1ccc(C2=CC3CCCC(C2)N3C)cc1 (stereo unspecified)
- T/C [1]: 100 % of control
- T/C [2]: 97 % of control

Compound: CN1CSCC1C(=O)O (stereo unspecified)
- T/C [23]: 94 % of control
- T/C (dose: 200.0 mg/kg/injection, schedule: Q04DX003 (ip), vehicle: saline): 96 % of control

Compound: COC(=O)C(Br)C(OC)c1ccccc1 (stereo unspecified)
- T/C [9]: 96 % of control
- T/C [10]: 96 % of control
- T/C [11]: 98 % of control

Compound: CCOC(=O)N1C=Cn2c(cnc2C)C1OC (stereo unspecified)
- T/C (dose: 50.0 mg/kg/injection, schedule: Q01DX009 (ip), vehicle: water): 93 % of control
- T/C [15]: 98 % of control
- T/C [16]: 95 % of control and 86 % of control

Compound: O=C(O)C(O)CBr (stereo unspecified)
- T/C (dose: 12.5 mg/kg/injection, schedule: Q01DX009 (ip), vehicle: saline with Tween-80): 103 % of control
- T/C (dose: 25.0 mg/kg/injection, schedule: Q01DX009 (ip), vehicle: saline with Tween-80): 95 % of control
- T/C (dose: 50.0 mg/kg/injection, schedule: Q01DX009 (ip), vehicle: saline with Tween-80): 98 % of control

Compound: O=C(Cl)c1c(Cl)c(Cl)c(C(=O)Cl)c(Cl)c1Cl
- T/C (dose: 25.0 mg/kg/injection, schedule: Q01DX009 (ip), vehicle: saline): 90 % of control
- T/C (dose: 50.0 mg/kg/injection, schedule: Q01DX009 (ip), vehicle: saline): 97 % of control
- T/C [3]: 98 % of control
- T/C [23]: 100 % of control
- T/C [4]: 98 % of control
- T/C [5]: 104 % of control

Compound: COc1cc(N=Cc2ccc([N+](=O)[O-])cc2)c2ncccc2c1
- T/C [6]: 101 % of control
- T/C [7]: 94 % of control
- T/C [8]: 92 % of control

Compound: NC1(C(=O)c2ccccc2)CC2CCC1C2 (stereo unspecified)
- T/C [20]: 101 % of control
- T/C [21]: 98 % of control
- T/C [22]: 103 % of control

Compound: CC(=O)NC1CCC(C(F)(F)F)CC1 (stereo unspecified)
- T/C [18]: 93 % of control and 96 % of control
- T/C [19]: 95 % of control and 98 % of control
- T/C (dose: 400.0 mg/kg/injection, schedule: Q01DX001 (ip), vehicle: Klucel (hydroxypropylcellulose) (HPC)): 106 % of control and 98 % of control
